The record followed here is patent publication US20220098197A1, “SALTS OF HETEROCYCLIC COMPOUND AND USE THEREOF” (priority 2019, published 2022).

The subject of data set [1] is NF-κB signalling pathway in the lung of LPS-induced ALI mice. In words: Western blotting of NF-κB signalling pathway, lung tissue of ALI mice. The class given is in vivo, Balb/c mice. The settings on record: CT-NA 10 mg/kg or 30 mg/kg. How it is done:
Specific pathogen-free (SPF) Balb/c mice (♂/♀; 20-26 g; 8 weeks old) were purchased from Shanghai SIPPR-BK Experimental Animal Co., Ltd. Mice were kept in an isolated ventilated cage in an environment of 40-60% humidity, 24±2° C., and 12 hrs/12 hrs dark-light cycle, and had free access to food and water. The method for preparing the LPS-induced ALI model was simply described as follows. The mice were randomly divided into a control group (12 mice) and an LPS group (48 mice). The LPS group (48 mice) was further divided into four subgroups (12 mice in each subgroup). The unanaesthetized mice in the four subgroups of LPS were intragastrically administered with normal saline (NS), CT-NA at 10 mg/kg or 30 mg/kg, and Dex at 1 mg/kg, respectively. One hour later, the mice were anesthetized with sodium pentobarbital (intraperitoneal injection at 40 mg/kg), and then subjected to intratracheal instillation of NS to control group and LPS (4 mg/kg) to all LPS subgroups. 12 hrs later, the unanaesthetized mice of the LPS group were intragastrically administered with NS, CT-NA at 10 mg/kg or 30 mg/kg, or Dex at 1 mg/kg, respectively (FIG. 16). […] 24 hrs after LPS challenge, the oxygen saturation (SO2) of all mice was measured by a Moor VMS-OXY™ instrument which measured SO2 (%) in the microcirculation at the wavelength range of 500 to 650 nm. […]
A general note: Immunoblotting shows a protein as a band on a membrane.

Data set [2] has as its system RAW264.7 macrophages. Briefly: Cell viability (MTT) assay with LPS/PGD2, RAW264.7. The class given is cell-based, mouse. How it is done:
The cell lines of RAW 264.7 macrophages and mouse leukemia mononuclear macrophages were purchased from ATCC (Manassas, Va.), and cultured in RPMI-1640 medium containing penicillin (100 U/ml), streptomycin (100 μg/ml) and 10% fetal bovine serum. RAW264.7 macrophage is an excellent model for screening anti-inflammatory drugs and evaluating the inhibitor pathways that stimulated the production of pro-inflammatory cytokines and enzymes. MTT was used to determine the cytotoxicity of CT-NA alone and its combination with PGD2 and LPS on RAW264.7 macrophages and isolated peritoneal macrophages according to the manufacturer's protocol. Briefly, RAW 264.7 macrophages were plated in a 96-well plate at a concentration of 4×10^5 cells/ml for 12 hrs, and then exposed to CT-NA (0-200 μM) at 37° C. for 1 hour. Next, RAW 264.7 macrophages were further exposed to LPS (100 ng/ml) and PGD2 (10 μM) for 24 hrs, and then treated with MTT (5 mg/ml) at 37° C. for 4 hrs. Then, the supernatant of each well was replaced with DMSO (200 μl/well), and the absorbance was measured at 570 nm.

The subject of data set [3] is neutrophils. Briefly: PGD2-induced neutrophils migration, Boyden chamber assay (Example 1). The class given is cell-based, mice. As to conditions: pretreatment CT-NA 1 and 10 μM (p<0.01) or OC459; PGD2 1 μM; 4 hrs. How it is done:
The mice were intragastrically administered glycogen (1.5%) at the dose range of 20 ml/kg of body weight. 4 hrs later, the mice were euthanized to isolate neutrophils from the peritoneal lavage. The effect of CT-NA on neutrophils migration was detected by using the Boyden chamber assay kit (3 μm pore size). PGD2 was used as a chemoattractant because the activated PGD2/CRTH2 receptors promoted the migration of neutrophils. Initially, the isolated neutrophils (4×10^5) were diluted in 100 μL HBSS and allowed to migrate toward PGD2 (0.1, 1 and 10 μM) for 4 hrs to find out the suitable PGD2 concentration. Then, the isolated neutrophils (4×10^5) were pretreated with CT-NA (1 and 10 μM), and their migration to PGD2 (1 μM) was evaluated by counting the migrated neutrophils. Moreover, another potent CRTH2 inhibitor OC459 was used to countercheck the outcomes of CT-NA.

Regarding `CN([C@@H]1CCc2c(CC(=O)[O-])c3cccnc3n2C1)S(=O)(=O)c1ccc(F)cc1.[Na+]` [Sodium salt hydrate], the “degradation of IκBα and P65 induced by LPS” value in data set [1] is on record as “strongly reversed”. Also, the “LPS-induced IκBα and P65 activation” value in data set [1] (dose-dependent) is “reduced”. In data set [2] (LPS (100 ng/ml) plus CT-NA up to 100 μM), the “cytotoxicity (MTT), LPS plus CT-NA” value was “non-toxic”. The “cytotoxicity (MTT), PGD2 plus CT-NA” value in data set [2] (PGD2 (10 μM) plus CT-NA up to 100 μM) is “non-toxic”. The PGD2-induced neutrophils migration result in data set [3] is recorded as “significantly attenuated”.
